# Measured values as given in US11597721B2, “Heterocyclic compounds comprising pyridine useful as modulators of IL-12, IL-23 and/or IFNα responses” (BRISTOL-MYERS SQUIBB COMPANY, priority 2018, dated 2023).
# Tested on: IFNα-Induced STAT Phosphorylation
# Assay: IFNα-Induced STAT Phosphorylation in Human Whole Blood
# Type: cell-based
# Conditions: Homo sapiens, 1 h compound incubation, 1000 U/mL recombinant human IFNα A/D for 15 min, pSTAT5 in CD3 positive population, read-out: LE Human WB IFNα-Induced Stat Phosph. (IC50)
# Description: IFNα-Induced STAT Phosphorylation in Human Whole Blood
# The amount of pSTAT5 expression was quantitated by median fluorescence intensity after gating on the CD3 positive population.
row,IC50,SMILES
1,1420 nM,"[2H]C([2H])([2H])NC(=O)c1nnc(NC(=O)CC(C)C)cc1Nc1nccc(-c2noc(COC)n2)c1OC [Example 68, 4-({3-methoxy-4-[5-(methoxymethyl)-1,2,4-oxadiazol-3-yl]pyridin-2-yl}amino)-N—(^2H3)methyl-6-(3-methylbutanamido)pyridazine-3-carboxamide]"
2,600 nM,"[2H]C([2H])([2H])NC(=O)c1nnc(Nc2cc(C(C)(C)O)ccn2)cc1Nc1nccc(-c2noc(C)n2)c1OC [Example 80, 6-{[4-(2-hydroxypropan-2-yl)pyridin-2-yl]amino}-4-{[3-methoxy-4-(5-methyl-1,2,4-oxadiazol-3-yl)pyridin-2-yl]amino}-N—(^2H3)methylpyridazine-3-carboxamide]"
3,220 nM,"[2H]C([2H])([2H])NC(=O)c1nnc(NC(=O)CC)cc1Nc1nccc(-c2noc(C)n2)c1OC [Example 81, 4-{[3-methoxy-4-(5-methyl-1,2,4-oxadiazol-3-yl)pyridin-2-yl]amino}-N—(^2H3)methyl-6-propanamidopyridazine-3-carboxamide]"
4,700 nM,"[2H]C([2H])([2H])NC(=O)c1nnc(NC(=O)CC(C)C)cc1Nc1nccc(-c2noc(CN3CCOCC3)n2)c1OC [Example 69, 4-[(3-methoxy-4-{5-[(morpholin-4-yl)methyl]-1,2,4-oxadiazol-3-yl}pyridin-2-yl)amino]-N—(^2H3)methyl-6-(3-methylbutanamido)pyridazine-3-carboxamide]"
5,90 nM,"[2H]C([2H])([2H])NC(=O)c1nnc(Nc2cc(C)n(C)n2)cc1Nc1nccc(-c2cnc(C(=O)N(C)C)cn2)c1OC [Example 91, 6-((1,5-Dimethyl-1H-pyrazol-3-yl)amino)-4-((4-(5-(dimethylcarbamoyl)pyrazin-2-yl)-3-methoxypyridin-2-yl)amino)-N-(methyl-d3)pyridazine-3-carboxamide]"
6,240 nM,"[2H]C([2H])([2H])NC(=O)c1nnc(NC(=O)CC(C)C)cc1Nc1nccc(-c2noc(CN(C)S(C)(=O)=O)n2)c1OC [Example 70, 4-[(3-methoxy-4-{5-[(N-methylmethanesulfonamido)methyl]-1,2,4-oxadiazol-3-yl}pyridin-2-yl)amino]-N—(^2H3)methyl-6-(3-methylbutanamido)pyridazine-3-carboxamide]"
7,30 nM,"[2H]C([2H])([2H])NC(=O)c1nnc(NC(=O)C2CC2)cc1Nc1nccc(-c2cnc(C(=O)N(C)C)cn2)c1OC [Example 87, 6-(Cyclopropanecarboxamido)-4-((4-(5-(dimethylcarbamoyl)pyrazin-2-yl)-3-methoxypyridin-2-yl)amino)-N-(methyl-d3)pyridazine-3-carboxamide]"
8,120 nM,"[2H]C([2H])([2H])NC(=O)c1nnc(NC(=O)CC)cc1Nc1nccc(-c2noc(CN3CCOCC3)n2)c1OC [Example 65, 4-[(3-methoxy-4-{5-[(morpholin-4-yl)methyl]-1,2,4-oxadiazol-3-yl}pyridin-2-yl)amino]-N—(^2H3)methyl-6-propanamidopyridazine-3-carboxamide]"
9,90 nM,"[2H]C([2H])([2H])NC(=O)c1cnc(NC(=O)CC)cc1Nc1nccc(-c2nnn(C)n2)c1OC [Example 105, 4-{[3-methoxy-4-(2-methyl-2H-1,2,3,4-tetrazol-5-yl)pyridin-2-yl]amino}-N—(^2H3)methyl-6-propanamidopyridine-3-carboxamide]"
10,130 nM,"[2H]C([2H])([2H])NC(=O)c1nnc(NC(=O)C2CC2)cc1Nc1nccc(-c2cnc(C(=O)N(C)CC)cn2)c1OC [Example 88, 6-(Cyclopropanecarboxamido)-4-((4-(5-(ethyl(methyl)carbamoyl)pyrazin-2-yl)-3-methoxypyridin-2-yl)amino)-N-(methyl-d3)pyridazine-3-carboxamide]"
11,90 nM,"[2H]C([2H])([2H])NC(=O)c1nnc(Nc2cc(Cl)n(C)n2)cc1Nc1nccc(-c2cnc(C(=O)N(C)C)cn2)c1OC [Example 92, 6-((5-Chloro-1-methyl-1H-pyrazol-3-yl)amino)-4-((4-(5-(dimethylcarbamoyl)pyrazin-2-yl)-3-methoxypyridin-2-yl)amino)-N-(methyl-d3)pyridazine-3-carboxamide]"
12,30 nM,"[2H]C([2H])([2H])NC(=O)c1nnc(NC(=O)C2CC2)cc1Nc1nccc(-c2noc(CN3CCOCC3)n2)c1OC [Example 55, 6-cyclopropaneamido-4-[(3-methoxy-4-{5-[(morpholin-4-yl)methyl]-1,2,4-oxadiazol-3-yl}pyridin-2-yl)amino]-N—(^2H3)methylpyridazine-3-carboxamide]"
13,1340 nM,"[2H]C([2H])([2H])NC(=O)c1nnc(NC(=O)OC)cc1Nc1nccc(-c2noc(C)n2)c1OC [Example 56, methyl N-(5-{[3-methoxy-4-(5-methyl-1,2,4-oxadiazol-3-yl)pyridin-2-yl]amino}-6-[(^2H3)methylcarbamoyl]pyridazin-3-yl)carbamate]"
14,80 nM,"[2H]C([2H])([2H])NC(=O)c1cnc(NC(=O)C2CC2)cc1Nc1nccc(-c2ccccn2)c1OC [Example 84, 6-(Cyclopropanecarboxamido)-4-((3′-methoxy-[2,4′-bipyridin]-2′-yl)amino)-N-(methyl-d3)nicotinamide]"
15,30 nM,"[2H]C([2H])([2H])NC(=O)c1nnc(Nc2ccc(C(C)(C)O)cn2)cc1Nc1nccc(-c2noc(C)n2)c1OC [Example 82, 6-{[5-(2-hydroxypropan-2-yl)pyridin-2-yl]amino}-4-{[3-methoxy-4-(5-methyl-1,2,4-oxadiazol-3-yl)pyridin-2-yl]amino}-N—(^2H3)methylpyridazine-3-carboxamide]"
16,300 nM,"[2H]C([2H])([2H])NC(=O)c1nnc(Nc2cc(C)ccn2)cc1Nc1nccc(-c2noc(CN(C)S(C)(=O)=O)n2)c1OC [Example 61, 4-[(3-methoxy-4-{5-[(N-methylmethanesulfonamido)methyl]-1,2,4-oxadiazol-3-yl}pyridin-2-yl)amino]-N—(^2H3)methyl-6-[(4-methylpyridin-2-yl)amino]pyridazine-3-carboxamide]"

# The remaining lines, values behind:
row,SMILES,IC50
1,"[2H]C([2H])([2H])NC(=O)c1nnc(Nc2ccc(C(C)(C)O)cn2)cc1Nc1nccc(-c2ncn(C)n2)c1OC [Example 33, 6-{[5-(2-hydroxypropan-2-yl)pyridin-2-yl]amino}-4-{[3-methoxy-4-(1-methyl-1H-1,2,4-triazol-3-yl)pyridin-2-yl]amino}-N—(^2H3)methylpyridazine-3-carboxamide]",20 nM
2,"[2H]C([2H])([2H])NC(=O)c1cnc(NC(=O)C2CC2)cc1Nc1nccc(-c2noc(C)n2)c1OC [Example 41, 6-cyclopropaneamido-4-{[3-methoxy-4-(5-methyl-1,2,4-oxadiazol-3-yl)pyridin-2-yl]amino}-N—(^2H3)methylpyridine-3-carboxamide]",30 nM
3,"[2H]C([2H])([2H])NC(=O)c1nnc(Nc2cc(C)c(F)cn2)cc1Nc1nccc(-c2ncn(C)n2)c1OC [Example 16, 6-[(5-fluoro-4-methylpyridin-2-yl)amino]-4-{[3-methoxy-4-(1-methyl-1H-1,2,4-triazol-3-yl)pyridin-2-yl]amino}-N—(^2H3)methylpyridazine-3-carboxamide]",120 nM
4,"[2H]C([2H])([2H])NC(=O)c1nnc(Nc2nnc(C)s2)cc1Nc1nccc(-c2ncn(C)n2)c1OC [Example 20, 4-{[3-methoxy-4-(1-methyl-1H-1,2,4-triazol-3-yl)pyridin-2-yl]amino}-N—(^2H3)methyl-6-[(5-methyl-1,3,4-thiadiazol-2-yl)amino]pyridazine-3-carboxamide]",1510 nM
5,"[2H]C([2H])([2H])NC(=O)c1nnc(NC(=O)C2CC2)cc1Nc1nccc(C#N)c1OC [Example 51, 4-[(4-cyano-3-methoxypyridin-2-yl)amino]-6-cyclopropaneamido-N—(^2H3)methylpyridazine-3-carboxamide]",> 10000 nM
6,"[2H]C([2H])([2H])NC(=O)c1nnc(Nc2cc(CC)ccn2)cc1Nc1nccc(-c2ncn(C)n2)c1OC [Example 17, 6-[(4-ethylpyridin-2-yl)amino]-4-{[3-methoxy-4-(1-methyl-1H-1,2,4-triazol-3-yl)pyridin-2-yl]amino}-N—(^2H3)methylpyridazine-3-carboxamide]",50 nM
7,"[2H]C([2H])([2H])NC(=O)c1cnc(NC(=O)CC2CC2)cc1Nc1nccc(-c2noc(C)n2)c1OC [Example 44, 6-(2-cyclopropylacetamido)-4-{[3-methoxy-4-(5-methyl-1,2,4-oxadiazol-3-yl)pyridin-2-yl]amino}-N—(^2H3)methylpyridine-3-carboxamide]",90 nM
8,"[2H]C([2H])([2H])NC(=O)c1cnc(NC(=O)CC)cc1Nc1nccc(-c2noc(COC)n2)c1OC [Example 48, 4-({3-methoxy-4-[5-(methoxymethyl)-1,2,4-oxadiazol-3-yl]pyridin-2-yl}amino)-N—(^2H3)methyl-6-propanamidopyridine-3-carboxamide]",200 nM
9,"[2H]C([2H])([2H])NC(=O)c1nnc(Nc2cc(Cl)ccn2)cc1Nc1nccc(-c2ncn(C)n2)c1OC [Example 21, 6-[(4-chloropyridin-2-yl)amino]-4-{[3-methoxy-4-(1-methyl-1H-1,2,4-triazol-3-yl)pyridin-2-yl]amino}-N—(^2H3)methylpyridazine-3-carboxamide]",30 nM
10,"[2H]C([2H])([2H])NC(=O)c1nnc(Nc2cc(C#N)ccn2)cc1Nc1nccc(-c2ncn(C)n2)c1OC [Example 13, 6-[(4-cyanopyridin-2-yl)amino]-4-{[3-methoxy-4-(1-methyl-1H-1,2,4-triazol-3-yl)pyridin-2-yl]amino}-N—(^2H3)methylpyridazine-3-carboxamide]",> 10000 nM
11,"[2H]C([2H])([2H])NC(=O)c1nnc(NC(=O)C2CC2)cc1Nc1nccc(-c2noc(CN(C)S(C)(=O)=O)n2)c1OC [Example 54, 6-cyclopropaneamido-4-[(3-methoxy-4-{5-[(N-methylmethanesulfonamido)methyl]-1,2,4-oxadiazol-3-yl}pyridin-2-yl)amino]-N—(^2H3)methylpyridazine-3-carboxamide]",10 nM
